The text below walks through data of patent US11040031B2, “Pyrazole derivatives as MALT1 inhibitors” (Janssen Pharmaceutica NV, priority 2018, dated 2021).

Read-outs that look alike come from different tables or passages of the source.

In assay [1] the test system is Secretion of IL10 by OCI-LY3 ABC-DLBCL cells. In words: Human IL10 Mesoscale assay (OCI-LY3). Type of assay: cell-based. The note with it: read-out: Human IL10 Mesoscale assay (OCI-LY3). As to the method:
(§1) NFKB signaling regulates the secretion of multiple cytokines, including IL6 and IL10. Secretion of the cytokines IL6 and IL10 by TMD8 or OCI-LY3 ABC-DLBCL cells was measured using a mesoscale assay.
(§2) Cell passage number should not exceed 30. Cells should be kept between 0.5-2.5 million cells per mL during culturing and cells should be supplemented every 2-3 days with fresh 50 µM beta-mercaptoenthanol. No beta-mercaptoethanol was used during the mesoscale assay.
(§3) DMSO control wells were used to determine the maximum signal (High Control (HC)). […] Compounds and cells were incubated for 24 h at 37° C. and 5% CO2 (assay volume is 150 μL). After 24 h of incubation 50 μL of the supernatant was transferred to a MSD plate (V-Plex Proinflammation Panel 1 (human) kit, Mesoscale (MSD)) and incubated for 2 h with vigorous shaking (600 rpm) at room temperature. Following incubation, plates were washed 3× with PBS+0.05% Tween-20 and 25 μL detection antibody solution (IL6 & IL10 antibodies in diluent 3 (MSD)) was added per well followed by 2 h of incubation with vigorous shaking (600 rpm) at room temperature. After 3× washes with PBS+0.05% Tween-20, plates were incubated with 150 μL 2× Read Buffer T and read on SECTOR imager.

In assay [2] the test system is Secretion of IL6 by OCI-LY3 ABC-DLBCL cells. In words: Human IL6 Mesoscale assay (OCI-LY3). It counts as cell-based. As to conditions: read-out: Human IL6 Mesoscale assay (OCI-LY3). As to the method:
as §1, §2, §3

The target in assay [3] is T1, full-length MALT1 protein (Strep-MALT1(1-824)-His) (Homo sapiens, UniProt Q9UDY8).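 Note: fluorogenic LRSR-AMC substrate cleavage by MALT1, 50 min compound preincubation then 4 h reaction at RT, 11-point dilution from 30 µM, scaled between enzyme-free and untreated enzyme controls.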
T1 sequence (Q9UDY8 1-824): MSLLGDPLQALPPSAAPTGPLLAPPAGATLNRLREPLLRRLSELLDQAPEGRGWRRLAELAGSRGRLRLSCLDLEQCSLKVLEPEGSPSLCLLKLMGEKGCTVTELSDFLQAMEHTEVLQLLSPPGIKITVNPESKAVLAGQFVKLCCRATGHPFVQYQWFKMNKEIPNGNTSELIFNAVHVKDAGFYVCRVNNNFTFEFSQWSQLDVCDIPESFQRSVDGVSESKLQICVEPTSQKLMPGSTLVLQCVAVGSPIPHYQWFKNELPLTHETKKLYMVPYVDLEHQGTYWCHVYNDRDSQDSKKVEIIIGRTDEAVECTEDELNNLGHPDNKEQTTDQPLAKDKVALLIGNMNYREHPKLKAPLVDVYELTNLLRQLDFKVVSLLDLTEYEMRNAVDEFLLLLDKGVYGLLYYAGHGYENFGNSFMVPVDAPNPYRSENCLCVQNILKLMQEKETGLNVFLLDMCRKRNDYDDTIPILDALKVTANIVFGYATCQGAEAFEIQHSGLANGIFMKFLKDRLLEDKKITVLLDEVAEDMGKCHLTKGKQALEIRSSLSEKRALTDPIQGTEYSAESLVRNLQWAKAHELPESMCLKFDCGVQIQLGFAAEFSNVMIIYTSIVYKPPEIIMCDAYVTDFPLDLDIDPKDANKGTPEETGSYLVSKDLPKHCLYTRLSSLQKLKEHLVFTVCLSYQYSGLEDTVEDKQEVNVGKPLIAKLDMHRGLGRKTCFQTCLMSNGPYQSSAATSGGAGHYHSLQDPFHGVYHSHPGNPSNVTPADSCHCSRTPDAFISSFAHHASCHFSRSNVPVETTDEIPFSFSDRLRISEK
In words: biochemical.

Setting [4] is: OCI-LY3 cells, 24 h incubation, supernatant, MSD V-Plex.

Turning to `Cc1cnccc1-n1ncc(C(=O)Nc2cnc(-n3nccn3)c(Cl)c2)c1C(F)(F)F` [Cpd 158, N-(5-chloro-6-(2H-1,2,3-triazol-2-yl)pyridin-3-yl)-1-(3-methylpyridin-4-yl)-5-(trifluoromethyl)-1H-pyrazole-4-carboxamide], the IC50 was 0.302 µM in assay [1] (OCI-Ly3, 24 h); 0.275 µM in assay [2] (OCI-Ly3, 24 h); 0.209 µM in assay [3].

Take `N#Cc1cc(NC(=O)c2cnn(-c3nc(Cl)ccc3Cl)c2C(F)(F)F)cnc1-n1nccn1` [Cpd 162, N-(5-cyano-6-(2H-1,2,3-triazol-2-yl)pyridin-3-yl)-1-(3,6-dichloropyridin-2-yl)-5-(trifluoromethyl)-1H-pyrazole-4-carboxamide]: the IC50 in assay [1] (setting [4]) worked out at 0.182 µM; in assay [2] (setting [4]), 0.251 µM; in assay [3] it was 0.302 µM.

As to `Cc1cc(Cl)ccc1-n1ncc(C(=O)Nc2cnc(-n3nccn3)c(C#N)c2)c1C(F)(F)F` [Cpd 166, 1-(4-chloro-2-methylphenyl)-N-(5-cyano-6-(2H-1,2,3-triazol-2-yl)pyridin-3-yl)-5-(trifluoromethyl)-1H-pyrazole-4-carboxamide], the results for the IC50 in assay [1] (setting [4]), in assay [2] (setting [4]) and in assay [3] were 0.078 µM, 0.066 µM and 0.05 µM, respectively.

As for `Cc1c(F)cccc1-n1ncc(C(=O)Nc2cnc(-n3nccn3)c(C#N)c2)c1C(F)(F)F` [Cpd 167, N-(5-cyano-6-(2H-1,2,3-triazol-2-yl)pyridin-3-yl)-1-(3-fluoro-2-methylphenyl)-5-(trifluoromethyl)-1H-pyrazole-4-carboxamide], the IC50 in assay [1] (setting [4]) amounted to 0.041 µM; in assay [2] (setting [4]), 0.054 µM; in assay [3], 0.069 µM.

`Cc1c(-n2ncc(C(=O)Nc3cnc(-n4nccn4)c(C#N)c3)c2C(F)(F)F)ccc(F)c1F` [Cpd 168, N-(5-cyano-6-(2H-1,2,3-triazol-2-yl)pyridin-3-yl)-1-(3,4-difluoro-2-methylphenyl)-5-(trifluoromethyl)-1H-pyrazole-4-carboxamide]: the IC50 in assay [1] (setting [4]) stood at 0.046 µM; in assay [2] (setting [4]), 0.078 µM; in assay [3] it was 0.074 µM.

Regarding `N#Cc1ccc(-n2ncc(C(=O)Nc3cnc(-n4nccn4)c(C#N)c3)c2C(F)(F)F)cc1` [Cpd 169, N-(5-cyano-6-(2H-1,2,3-triazol-2-yl)pyridin-3-yl)-1-(4-cyanophenyl)-5-(trifluoromethyl)-1H-pyrazole-4-carboxamide], the IC50 was determined as 0.076 µM in assay [1] (setting [4]), 0.105 µM in assay [2] (setting [4]) and 0.091 µM in assay [3].

In the case of `Cc1cc(F)ccc1-n1ncc(C(=O)Nc2cc(C#N)c(-n3nccn3)nc2C)c1C(F)(F)F` [Cpd 170, N-(5-cyano-2-methyl-6-(2H-1,2,3-triazol-2-yl)pyridin-3-yl)-1-(4-fluoro-2-methylphenyl)-5-(trifluoromethyl)-1H-pyrazole-4-carboxamide], the results for the IC50 in assay [1] (setting [4]), in assay [2] (setting [4]) and in assay [3] were 0.38 µM, 0.417 µM and 0.102 µM, respectively.

For `Cc1c(F)cccc1-n1ncc(C(=O)Nc2cnc(-n3nccn3)c(Cl)c2)c1C(F)(F)F` [Cpd 171, N-(5-chloro-6-(2H-1,2,3-triazol-2-yl)pyridin-3-yl)-1-(3-fluoro-2-methylphenyl)-5-(trifluoromethyl)-1H-pyrazole-4-carboxamide], the results for the IC50 in assay [1] (setting [4]), in assay [2] (setting [4]) and in assay [3] were 0.076 µM, 0.098 µM and 0.145 µM, respectively.

As for `Cc1cc(F)ccc1-n1ncc(C(=O)Nc2cc(Cl)c(-n3nccn3)nc2C)c1C(F)(F)F` [Cpd 172, N-(5-chloro-2-methyl-6-(2H-1,2,3-triazol-2-yl)pyridin-3-yl)-1-(4-fluoro-2-methylphenyl)-5-(trifluoromethyl)-1H-pyrazole-4-carboxamide], the IC50 in assay [1] (setting [4]) was determined as 0.178 µM; in assay [2] (setting [4]) it was 0.2 µM; in assay [3], 0.151 µM.

As to `N#Cc1cc(NC(=O)c2cnn(-c3c(F)cc(F)cc3F)c2C(F)(F)F)cnc1-n1nccn1` [Cpd 173, N-(5-cyano-6-(2H-1,2,3-triazol-2-yl)pyridin-3-yl)-5-(trifluoromethyl)-1-(2,4,6-trifluorophenyl)-1H-pyrazole-4-carboxamide], the IC50 in assay [1] (setting [4]) stood at 0.095 µM; in assay [2] (setting [4]), 0.129 µM; in assay [3], 0.151 µM.

Turning to `N#Cc1cc(NC(=O)c2cnn(-c3nc(N)ccc3Cl)c2C(F)(F)F)cnc1-n1nccn1` [Cpd 175, 1-(6-amino-3-chloropyridin-2-yl)-N-(5-cyano-6-(2H-1,2,3-triazol-2-yl)pyridin-3-yl)-5-(trifluoromethyl)-1H-pyrazole-4-carboxamide], the IC50 in assay [1] (setting [4]) turned out to be 0.229 µM; in assay [2] (setting [4]), 0.331 µM; in assay [3], 0.141 µM.

For `Cc1cc(N)nc(-n2ncc(C(=O)Nc3cnc(-n4nccn4)c(C#N)c3)c2C(F)(F)F)c1` [Cpd 176, 1-(6-amino-4-methylpyridin-2-yl)-N-(5-cyano-6-(2H-1,2,3-triazol-2-yl)pyridin-3-yl)-5-(trifluoromethyl)-1H-pyrazole-4-carboxamide], the results for the IC50 in assay [1] (setting [4]), in assay [2] (setting [4]) and in assay [3] were 0.813 µM, 0.813 µM and 0.17 µM, respectively.

Regarding `Cc1nc(-n2nccn2)c(C#N)cc1NC(=O)c1cnn(-c2ccc(C#N)c(N)n2)c1C(F)(F)F` [Cpd 177, 1-(6-amino-5-cyanopyridin-2-yl)-N-(5-cyano-2-methyl-6-(2H-1,2,3-triazol-2-yl)pyridin-3-yl)-5-(trifluoromethyl)-1H-pyrazole-4-carboxamide], the IC50 in assay [1] (setting [4]) was found to be 2.75 µM; in assay [2] (setting [4]) it was 7.41 µM; in assay [3], 0.195 µM.

For `Cc1nc(-n2nccn2)c(Cl)cc1NC(=O)c1cnn(-c2ccc(F)c(N)n2)c1C(F)(F)F` [Cpd 179, 1-(6-amino-5-fluoropyridin-2-yl)-N-(5-chloro-2-methyl-6-(2H-1,2,3-triazol-2-yl)pyridin-3-yl)-5-(trifluoromethyl)-1H-pyrazole-4-carboxamide], the IC50 in assay [1] (setting [4]) came to 0.324 µM; in assay [2] (setting [4]), 0.676 µM; in assay [3], 0.204 µM.

In the case of `Nc1cccc(-n2ncc(C(=O)Nc3cnc(-n4nccn4)c(Cl)c3)c2C(F)(F)F)n1` [Cpd 180, 1-(6-aminopyridin-2-yl)-N-(5-chloro-6-(2H-1,2,3-triazol-2-yl)pyridin-3-yl)-5-(trifluoromethyl)-1H-pyrazole-4-carboxamide], the IC50 in assay [1] (setting [4]) amounted to 0.17 µM; in assay [2] (setting [4]), 0.257 µM; in assay [3] it was 0.219 µM.

Take `Cc1nc(-n2nccn2)c(Br)cc1NC(=O)c1cnn(-c2ccc(F)c(N)n2)c1C(F)(F)F` [Cpd 181, 1-(6-amino-5-fluoropyridin-2-yl)-N-(5-bromo-2-methyl-6-(2H-1,2,3-triazol-2-yl)pyridin-3-yl)-5-(trifluoromethyl)-1H-pyrazole-4-carboxamide]: the IC50 in assay [1] (setting [4]) amounted to 0.24 µM; in assay [2] (setting [4]), 0.363 µM; in assay [3], 0.234 µM.

On to `Cc1nc(-n2nccn2)c(C#N)cc1NC(=O)c1cnn(-c2ccc(F)c(N)n2)c1C(F)(F)F` [Cpd 182, 1-(6-amino-5-fluoropyridin-2-yl)-N-(5-cyano-2-methyl-6-(2H-1,2,3-triazol-2-yl)pyridin-3-yl)-5-(trifluoromethyl)-1H-pyrazole-4-carboxamide], for which the IC50 in assay [1] (setting [4]) is 0.389 µM; in assay [2] (setting [4]), 0.49 µM; in assay [3], 0.234 µM.

Turning to `Nc1ccc(Cl)c(-n2ncc(C(=O)Nc3cnc(-n4nccn4)c(Cl)c3)c2C(F)(F)F)n1` [Cpd 183, 1-(6-amino-3-chloropyridin-2-yl)-N-(5-chloro-6-(2H-1,2,3-triazol-2-yl)pyridin-3-yl)-5-(trifluoromethyl)-1H-pyrazole-4-carboxamide], the IC50 in assay [1] (setting [4]) came out at 0.195 µM; in assay [2] (setting [4]), 0.269 µM; in assay [3] it was 0.282 µM.
